# From ChEMBL document CHEMBL1201862, “PubChem BioAssay data set” (2004)
#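 Cells were grown in 96-well plates and exposed to each compound for 48 hours at five concentrations; endpoints were interpolated linearly between bracketing concentrations, or set to the highest concentration if not reached. Abbreviation: GI50, concentration required for 50% inhibition of growth.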 Activity calls are given as the source filed them. Rule as the data show it: active = GI50 up to about 1.1 µM and inactive = higher.
# Tests used:
# Assay in all cases: DTP human tumour cell line panel, 48 h
# SF-295 = tested on: SF-295
# OVCAR-8 = tested on: OVCAR-8
# SNB-75 = tested on: SNB-75
# SK-OV-3 = tested on: SK-OV-3
# SK-MEL-28 = tested on: SK-MEL-28
# OVCAR-3 = tested on: OVCAR-3
# 786-0 = tested on: 786-0
# SK-MEL-5 = tested on: SK-MEL-5
# SF-539 = tested on: SF-539
# OVCAR-4 = tested on: OVCAR-4
# LOX IMVI = tested on: LOX IMVI
# MDA-MB-231 = tested on: MDA-MB-231
# KM12 = tested on: KM12
# SW-620 = tested on: SW-620
# UACC-257 = tested on: UACC-257
# Malme-3M = tested on: Malme-3M
# CAKI-1 = tested on: CAKI-1
# Hs-578T = tested on: Hs-578T
# A549 = tested on: A549
# HCT-116 = tested on: HCT-116
SMILES,GI50 (SF-295),GI50 (OVCAR-8),GI50 (SNB-75),GI50 (SK-OV-3),GI50 (SK-MEL-28),GI50 (OVCAR-3),GI50 (786-0),GI50 (SK-MEL-5),GI50 (SF-539),GI50 (OVCAR-4),GI50 (LOX IMVI),GI50 (MDA-MB-231),GI50 (KM12),GI50 (SW-620),GI50 (UACC-257),GI50 (Malme-3M),GI50 (CAKI-1),GI50 (Hs-578T),GI50 (A549),GI50 (HCT-116)
O=c1[nH]c(C23CC4CC(CC(C4)C2)C3)cc2c1c(=O)oc1ccccc12,3.71 µM (inactive),3.19 µM (inactive),2.53 µM (inactive),3.25 µM (inactive),5.86 µM (inactive),4.42 µM (inactive),1.61 µM (inactive),4.6 µM (inactive),4.53 µM (inactive),3.15 µM (inactive),2.95 µM (inactive),3.4 µM (inactive),14.5 µM (inactive),7.59 µM (inactive),19.8 µM (inactive),3.65 µM (inactive),1.86 µM (inactive),1.1 µM (active),2.83 µM (inactive),3.06 µM (inactive)
CC(=O)N(CCc1ccccc1)C(C#N)c1ccc(OCCCCCCCCCCOc2ccc(C(C#N)N(CCc3ccccc3)C(C)=O)cc2)cc1 (stereo not given),12.4 µM (inactive),23 µM (inactive),17.7 µM (inactive),22.9 µM (inactive),> 100 µM (inactive),> 100 µM (inactive),16.2 µM (inactive),> 100 µM (inactive),23.3 µM (inactive),5.41 µM (inactive),> 100 µM (inactive),15.2 µM (inactive),> 100 µM (inactive),> 100 µM (inactive),> 100 µM (inactive),> 100 µM (inactive),97.3 µM (inactive),17.1 µM (inactive),> 100 µM (inactive),> 100 µM (inactive)
CCOc1cc2c(cc1OC(C)=O)C(=O)CC[C@H]1C3CC[C@H](OC(C)=O)[C@@]3(C)CC[C@H]21 (stereo not given in full),> 100 µM (inactive),> 100 µM (inactive),> 100 µM (inactive),> 100 µM (inactive),> 100 µM (inactive),> 100 µM (inactive),> 100 µM (inactive),> 100 µM (inactive),> 100 µM (inactive),> 100 µM (inactive),> 100 µM (inactive),> 100 µM (inactive),> 100 µM (inactive),> 100 µM (inactive),> 100 µM (inactive),> 100 µM (inactive),> 100 µM (inactive),> 100 µM (inactive),> 100 µM (inactive),> 100 µM (inactive)
CC(C)(S)C(N)C(=O)O (stereo not drawn) [DL-PENICILLAMINE],> 100 µM (inactive),> 100 µM (inactive),> 100 µM (inactive),> 100 µM (inactive),> 100 µM (inactive),> 100 µM (inactive),> 100 µM (inactive),> 100 µM (inactive),> 100 µM (inactive),> 100 µM (inactive),> 100 µM (inactive),> 100 µM (inactive),> 100 µM (inactive),> 100 µM (inactive),> 100 µM (inactive),> 100 µM (inactive),> 100 µM (inactive),> 100 µM (inactive),> 100 µM (inactive),> 100 µM (inactive)
